Read-outs that look alike come from different tables or passages of the source.
Assays:
Assay in all cases: Test agar plates (disc diffusion), diameter of inhibition area
Type in all cases: cell-based
[1] = system: Pseudomonas aeruginosa DSM1117; details: DSM1117, 18 h, test agar plates, active substance 1 mg/ml, more than 1 cm or more than 2 cm, read-out: diameter of inhibition, Pseudomonas aeruginosa DSM1117
Protocol: (§1) The dry compounds were dissolved in DMSO (1 mg/ml) and the so obtained stock solution was diluted with sterilized Millipore water 1:10 and 1:100
(§2) 20 μl of cryo stock of each strain were inoculated to 20 ml of Mueller-Hinton medium and grown overnight at 30° C. or 37° C. on a vertical shaker with 160 rpm. The inoculum for the test was adjusted by the 0.5 McFarland Standard (OD625 from 0.08 to 0.1)
Pseudomonas aeruginosa DSM1117 [gram. Neg.] Medium: MHB/37° C.
(§3) Every plate is prepared by pouring 10 ml Mueller-Hinton agar into standard petri dishes (diam 94 mm). The so obtained Mueller-Hinton plates are overlayed with 4 ml Mueller-Hinton soft agar containing 100 μl suspension of the test strain.
(§4) After the soft agar turned solid, sterile susceptibility test discs were circular placed on the agar and on every test disc 10 μl compound was added. Each concentration is tested in triplicate. The agar dishes were incubated for 18 hours at a temperature of 30° C. or 37° C. Results are obtained by measuring the diameter of inhibition area around each test disc.

[2] = system: Staphylococcus aureus DSM 2569; details: DSM2569, 18 h, test agar plates, active substance 1 mg/ml, "more than 1 cm and more than 2 cm" [sic], read-out: diameter of inhibition, Staphylococcus aureus DSM 2569
Protocol: as §1, §2
Staphylococcus aureus DSM 2569 [gram. Pos.] Medium: MHB/37° C.
as §3, §4

[3] = system: Escherichia coli albi-res (Montpellier); details: 18 h, read-out: diameter of inhibition, Escherichia coli albi-res (Montpellier)
Protocol: as §1, §2
Escherichia coli albi-res (Montpellier) [gram. Neg.] Medium: MHB/37° C.
as §3, §4

Bacillus subtilis DSM10 = details: Bacillus subtilis, DSM10, 18 h; test agar plates, active substance 1 mg/ml; more than 1 cm or more than 3.9 cm [sic]; read-out: diameter of inhibition, Bacillus subtilis DSM10
Protocol: as §1, §2
Bacillus subtilis DSM10 [gram. Pos.] Medium: MHB/30° C.
as §3, §4

Escherichia coli DH5α = details: 18 h, test agar plates, active substance 1 mg/ml, more than 1 cm or more than 2 cm, read-out: diameter of inhibition, Escherichia coli DH5α
Protocol: as §1, §2
Escherichia coli DH5α [gram. Neg.] Medium: MHB/37° C.
as §3, §4

[4] = system: Micrococcus luteus DSM1790; details: Micrococcus luteus, DSM1790, 18 h; test agar plates, active substance 1 mg/ml; "more than 1 cm and more than 2 cm" [sic]; read-out: diameter of inhibition, Micrococcus luteus DSM1790
Protocol: as §1, §2
Micrococcus luteus DSM1790 [gram. Pos.] Medium: MHB/37° C.
as §3, §4

[5] = test agar plates, active substance 1 mg/ml, more than 1 cm or more than 2 cm

Compound	zone of inhibition at 1000 µg/mL [1]	zone of inhibition at 1000 µg/mL [2]	zone of inhibition at 1000 µg/mL [3, 5]	zone of inhibition at 1000 µg/mL (Bacillus subtilis DSM10)	zone of inhibition at 1000 µg/mL (Escherichia coli DH5α)	zone of inhibition at 1000 µg/mL [4]	zone of inhibition at 1000 µg/mL [3]
COc1c(NC(=O)c2ccc(NC(=O)c3ccc(NC(=O)C(CC#N)NC(=O)c4ccc(NC(=O)c5ccc(O)cc5)cc4)cc3)c(OC)c2O)ccc(C(=O)O)c1O (centres unmarked) [Compound 7]	> 10 mm	> 10 mm	> 10 mm	> 10 mm			
COc1c(NC(=O)c2ccc(NC(=O)c3ccc(NC(=O)C(CC#N)NC(=O)c4ccc(NC(=O)c5ccc(N6CCOCC6)cc5)cc4)cc3)c(OC)c2O)ccc(C(=O)O)c1O (centres unmarked) [Compound 8]		> 10 mm	> 10 mm	> 10 mm	> 10 mm		
COc1c(NC(=O)c2ccc(NC(=O)c3ccc(NC(=O)C(CC#N)NC(=O)c4ccc(NC(=O)c5cccc(-c6ccccc6)c5)cc4)cc3)c(OC)c2O)ccc(C(=O)O)c1O (centres unmarked) [Compound 13]	> 10 mm		> 10 mm	> 10 mm	> 10 mm	> 10 mm	
COc1c(NC(=O)c2ccc(NC(=O)c3ccc(NC(=O)C(CC#N)NC(=O)c4ccc(NC(=O)c5ccc[nH]5)cc4)cc3)c(OC)c2O)ccc(C(=O)O)c1O (centres unmarked) [Compound 14]			> 10 mm	> 10 mm			
COc1c(NC(=O)c2ccc(NC(=O)c3ccc(NC(=O)C(CC#N)NC(=O)c4ccc(NC(=O)c5ccco5)cc4)cc3)c(OC)c2O)ccc(C(=O)O)c1O (centres unmarked) [Compound 15]		> 10 mm	> 10 mm	> 10 mm			
COc1c(NC(=O)c2ccc(NC(=O)c3ccc(NC(=O)C(CC#N)NC(=O)c4ccc(NC(=O)Cc5ccc(Cl)cc5)cc4)cc3)c(OC)c2O)ccc(C(=O)O)c1O (centres unmarked) [Compound 26]	> 10 mm			> 10 mm			> 10 mm
COc1c(NC(=O)c2ccc(NC(=O)c3ccc(NC(=O)C(CC#N)NC(=O)c4ccc(NC(=O)CCc5ccccn5)cc4)cc3)c(OC)c2O)ccc(C(=O)O)c1O (centres unmarked) [Compound 29]	> 10 mm			> 10 mm			> 10 mm
CCCCCC(=O)Nc1ccc(C(=O)NC(CC#N)C(=O)Nc2ccc(C(=O)Nc3ccc(C(=O)Nc4ccc(C(=O)O)c(O)c4OC)c(O)c3OC)cc2)cc1 (centres unmarked) [Compound 34]	> 10 mm	> 10 mm		> 10 mm	> 10 mm		> 10 mm
COc1c(NC(=O)c2ccc(NC(=O)c3ccc(NC(=O)C(CC#N)NC(=O)c4ccc(NC(=O)C5CC5)cc4)cc3)c(OC)c2O)ccc(C(=O)O)c1O (centres unmarked) [Compound 38]			> 10 mm	> 10 mm			
CCC(CC)C(=O)Nc1ccc(C(=O)NC(CC#N)C(=O)Nc2ccc(C(=O)Nc3ccc(C(=O)Nc4ccc(C(=O)O)c(O)c4OC)c(O)c3OC)cc2)cc1 (centres unmarked) [Compound 39]			> 10 mm	> 10 mm			
COc1c(NC(=O)c2ccc(NC(=O)c3ccc(NC(=O)C(CC#N)NC(=O)c4ccc(NC(=O)C(C)(C)C)cc4)cc3)c(OC)c2O)ccc(C(=O)O)c1O (centres unmarked) [Compound 40]			> 10 mm	> 10 mm			
COc1c(NC(=O)c2ccc(NC(=O)c3ccc(NC(=O)C(CC#N)NC(=O)c4ccc(NC(=O)C5CCCC5)cc4)cc3)c(OC)c2O)ccc(C(=O)O)c1O (centres unmarked) [Compound 41]			> 10 mm	> 10 mm			
COc1ccc(S(=O)(=O)Nc2ccc(C(=O)NC(CC#N)C(=O)Nc3ccc(C(=O)Nc4ccc(C(=O)Nc5ccc(C(=O)O)c(O)c5OC)c(O)c4OC)cc3)cc2)cc1 (centres unmarked) [Compound 49]							> 10 mm
